*1 amine or outer side, *2 acyl side, *3 side chain or, on linkers, in order; H or OH if unused. Where a SMILES comes first, the peptide text is derived from it. Bridges are numbered along the chain shown (N, C = ends). [ ]: non-standard residue; d: D form. The star is where a group is joined. ξ: configuration not given here. X2 = CC(C)C(NC(=O)CCN1C(=O)C=CC1=O)C(=O)N[C@@H](C)C(=O)Nc1ccc(CN*)cc1; ξTrp(2-yl) = O=C(C(Cc1c([*:3])[nH]c2ccccc12)N[*:1])[*:2]; Ile(4R-OH,5-OH) = C[C@H]([C@H](N)C(=O)O)[C@@H](O)CO; X3 = CC([C@H](N[*:1])C(=O)[*:2])[C@@H](O)CO; X1 = O=C([C@@H]1CC(O)CN1[*:1])[*:2]; ξD = NC(CC(=O)O)C(=O)O; ξC = NC(CS)C(=O)O
How the values were obtained:
[1] = reactivity with cysteine in PBS buffer, RP-HPLC C18; type: physicochemical; conditions: 1 mg/mL compound, 10 mg/mL cysteine in PBS, pH 7.4 at 37° C. after 24 h, 48 h and 6 d
Description: 1 mg/ml α-amanitin 10 mg/mL cysteine in PBS, pH 7.4 at 37° C. after 24 h, 48 h and 6 d RP-HPLC C18.
1 mg/mL β-amanitin 10 mg/mL cysteine in PBS, pH 7.4 at 37° C. after 24 h, 48 h and 6 d RP-HPLC […].
1 mg/mL amanin 10 mg/mL cysteine in PBS, pH 7.4 at 37° C. after 24 h, 48 h and 6 d RP-HPLC […].
1 mg/mL HDP 30.2105, 10 mg/mL cysteine in PBS, pH 7.4 at 37° C. after 24 h, 48 h and 6 d RP-HPLC C18; * impurity.

[2] = Western-Blot analysis of T-D265C conjugates after incubation in human plasma, mouse plasma and PBS; type: in vitro ADME; conditions: conjugated to T-D265C antibody; 37° C. in human plasma, mouse plasma and PBS for 0, 4 and 10 days
Description: Western-Blot analysis of amatoxin derivatives HOP 30.1699, HDP 30.2060 and HDP 30.2115 conjugated to T-D265C antibody after incubation at 37° C. in human plasma, mouse plasma an phosphate buffered saline (PBS) for 0, 4 and 10 days. Detection was done with a polyclonal anti-amanitin antibody from rabbit and an anti-rabbit antibody conjugated to horseradish peroxidase.

SKBR-3 cells = assay: cytotoxicity assay on SKBR-3 cells after plasma/PBS stressing of ADCs; type: cell-based; conditions: conjugated to T-D265C, SKBR-3 cells 96 h
Description: Test items were incubated in human plasma at 37° C. for 0 an 4 days. Cytotoxicity assay were performed on SKBR-3 cells for 96 h.
Test items were incubated in mouse plasma at 37° C. for 0 an 4 days. Cytotoxicity assay were performed on SKBR-3 cells for 96 h.
Test items were incubated in PBS at 37° C. for 0 an 4 days. Cytotoxicity assay were performed on SKBR-3 cells for 96 h. All ADCs show adequate stability to non-enzymatic environment.

RNA-polymerase II = RNA-polymerase II (Homo sapiens, UniProt P24928); conditions: complex between amanitin and RNA-polymerase II; cited from earlier work

Row | Compound | reactivity with cysteine [1] | other results
1 | CC[C@H](C)[C@@H]1NC(=O)CNC(=O)C2Cc3c([nH]c4ccccc34)SCC(NC(=O)CNC1=O)C(=O)NC(CC(=O)O)C(=O)N1CC(O)C[C@H]1C(=O)N[C@@H](C(C)[C@@H](O)CO)C(=O)N2 (some centres unmarked) [HDP 30.2105] (cyclo(GIG[ξC][ξD][X1][X3][ξTrp(2-yl)]); thioether 4-8) | complete absence of reactivity | –
2 | CC[C@H](C)[C@@H]1NC(=O)CNC(=O)C2Cc3c([nH]c4ccccc34)SCC(NC(=O)CNC1=O)C(=O)N[C@@H](CC(=O)NCc1ccc(NC(=O)[C@H](C)NC(=O)C(NC(=O)CCN3C(=O)C=CC3=O)C(C)C)cc1)C(=O)N1CC(O)C[C@H]1C(=O)N[C@@H]([C@@H](C)[C@@H](O)CO)C(=O)N2 (stereo partly drawn) [HDP 30.2115] (cyclo(D(X2)[X1][Ile(4R-OH,5-OH)][ξTrp(2-yl)]GIG[ξC]); thioether 4-8) | – | cross-links and loss of the amatoxin moiety (stability) [2]: high stability and significantly reduced cross-links; cytotoxicity after plasma stressing (SKBR-3 cells; human plasma at 37° C. for 0 and 4 days): still picomolar activity; cytotoxicity after plasma stressing (SKBR-3 cells; mouse plasma at 37° C. for 0 and 4 days): remains almost unchanged
3 | amanin | reduced reactivity | –
4 | amanitin | – | Kd (RNA-polymerase II): 3 nM
5 | α-Amanitin | strong reactivity | –
6 | β-Amanitin | strong reactivity | –
